Laboratory results as given in patent EP4722207A1, “OXOISOINDOLINYL-SUBSTITUTED TETRAHYDROPYRIMIDINEDIONE DERIVATIVE AND USE THEREOF” (Gluetacs Therapeutics (Shanghai) Co., Ltd., priority 2023, dated 2024).

Key:
Type in all cases: cell-based
Conditions in all cases: compounds at 50 nM and 500 nM, 24 hours
CK1α = biological target: T1, CK1α (Homo sapiens, UniProt P48729+Q96SW2); assay: Western-blot assay, substrate protein degradation in hPBMCs: CK1α
T1 construct: effects of the compounds of the present disclosure on the expression of target proteins in cells; endogenous in cells; host or cells: human PBMCs (hPBMCs)

GSPT1 = biological target: T2, GSPT1 (Homo sapiens, UniProt P15170+Q96SW2); assay: Western-blot assay, substrate protein degradation in hPBMCs: GSPT1
T2 construct: effects of the compounds of the present disclosure on the expression of target proteins in cells; endogenous in cells; host or cells: human PBMCs (hPBMCs)

IKZF2 = biological target: T3, IKZF2 (Homo sapiens, UniProt Q96SW2+Q9UKS7); assay: Western-blot assay, substrate protein degradation in hPBMCs: IKZF2
T3 construct: effects of the compounds of the present disclosure on the expression of target proteins in cells; endogenous in cells; host or cells: human PBMCs (hPBMCs)

IKZF3 = biological target: T4, IKZF3 (Homo sapiens, UniProt Q96SW2+Q9UKT9); assay: Western-blot assay, substrate protein degradation in hPBMCs: IKZF3
T4 construct: effects of the compounds of the present disclosure on the expression of target proteins in cells; endogenous in cells; host or cells: human PBMCs (hPBMCs)

IKZF1 = biological target: T5, IKZF1 (Homo sapiens, UniProt Q13422+Q96SW2); assay: Western-blot assay, substrate protein degradation in hPBMCs: IKZF1
T5 construct: effects of the compounds of the present disclosure on the expression of target proteins in cells; endogenous in cells; host or cells: human PBMCs (hPBMCs)

WEE1 = biological target: T6, WEE1 (Homo sapiens, UniProt P30291+Q96SW2); assay: Western-blot assay, substrate protein degradation in hPBMCs: WEE1
T6 construct: effects of the compounds of the present disclosure on the expression of target proteins in cells; endogenous in cells; host or cells: human PBMCs (hPBMCs)
T6 sequence (P30291 whole entry): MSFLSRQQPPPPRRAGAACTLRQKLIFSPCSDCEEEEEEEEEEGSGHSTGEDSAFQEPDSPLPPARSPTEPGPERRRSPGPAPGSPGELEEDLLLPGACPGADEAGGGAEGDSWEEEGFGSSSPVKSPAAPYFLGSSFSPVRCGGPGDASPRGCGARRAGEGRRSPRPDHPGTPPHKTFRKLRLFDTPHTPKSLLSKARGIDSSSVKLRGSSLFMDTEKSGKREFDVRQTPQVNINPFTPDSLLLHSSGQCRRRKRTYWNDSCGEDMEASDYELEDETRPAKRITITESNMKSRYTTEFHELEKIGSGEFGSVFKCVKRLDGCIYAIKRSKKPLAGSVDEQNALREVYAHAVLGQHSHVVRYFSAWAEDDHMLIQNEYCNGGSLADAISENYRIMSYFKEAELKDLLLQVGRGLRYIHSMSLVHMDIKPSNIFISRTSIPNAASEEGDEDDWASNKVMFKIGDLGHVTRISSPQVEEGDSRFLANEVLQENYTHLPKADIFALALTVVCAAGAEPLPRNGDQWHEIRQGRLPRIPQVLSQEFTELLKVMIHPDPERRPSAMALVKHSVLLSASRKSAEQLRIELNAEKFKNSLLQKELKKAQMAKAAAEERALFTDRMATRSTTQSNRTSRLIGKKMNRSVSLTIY
T6 sequence (Q96SW2 whole entry): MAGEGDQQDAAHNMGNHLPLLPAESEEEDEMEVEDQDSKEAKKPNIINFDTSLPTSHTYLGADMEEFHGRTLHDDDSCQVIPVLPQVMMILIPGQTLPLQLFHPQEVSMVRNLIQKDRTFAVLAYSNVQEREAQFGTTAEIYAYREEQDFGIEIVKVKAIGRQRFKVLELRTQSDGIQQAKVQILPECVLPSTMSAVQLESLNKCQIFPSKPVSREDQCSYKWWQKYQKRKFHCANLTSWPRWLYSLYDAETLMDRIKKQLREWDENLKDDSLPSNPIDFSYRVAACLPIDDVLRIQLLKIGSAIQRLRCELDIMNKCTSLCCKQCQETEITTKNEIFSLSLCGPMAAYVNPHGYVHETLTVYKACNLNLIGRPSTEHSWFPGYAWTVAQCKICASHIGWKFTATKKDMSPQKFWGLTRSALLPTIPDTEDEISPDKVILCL
T6 sequence (Q16531 whole entry partner): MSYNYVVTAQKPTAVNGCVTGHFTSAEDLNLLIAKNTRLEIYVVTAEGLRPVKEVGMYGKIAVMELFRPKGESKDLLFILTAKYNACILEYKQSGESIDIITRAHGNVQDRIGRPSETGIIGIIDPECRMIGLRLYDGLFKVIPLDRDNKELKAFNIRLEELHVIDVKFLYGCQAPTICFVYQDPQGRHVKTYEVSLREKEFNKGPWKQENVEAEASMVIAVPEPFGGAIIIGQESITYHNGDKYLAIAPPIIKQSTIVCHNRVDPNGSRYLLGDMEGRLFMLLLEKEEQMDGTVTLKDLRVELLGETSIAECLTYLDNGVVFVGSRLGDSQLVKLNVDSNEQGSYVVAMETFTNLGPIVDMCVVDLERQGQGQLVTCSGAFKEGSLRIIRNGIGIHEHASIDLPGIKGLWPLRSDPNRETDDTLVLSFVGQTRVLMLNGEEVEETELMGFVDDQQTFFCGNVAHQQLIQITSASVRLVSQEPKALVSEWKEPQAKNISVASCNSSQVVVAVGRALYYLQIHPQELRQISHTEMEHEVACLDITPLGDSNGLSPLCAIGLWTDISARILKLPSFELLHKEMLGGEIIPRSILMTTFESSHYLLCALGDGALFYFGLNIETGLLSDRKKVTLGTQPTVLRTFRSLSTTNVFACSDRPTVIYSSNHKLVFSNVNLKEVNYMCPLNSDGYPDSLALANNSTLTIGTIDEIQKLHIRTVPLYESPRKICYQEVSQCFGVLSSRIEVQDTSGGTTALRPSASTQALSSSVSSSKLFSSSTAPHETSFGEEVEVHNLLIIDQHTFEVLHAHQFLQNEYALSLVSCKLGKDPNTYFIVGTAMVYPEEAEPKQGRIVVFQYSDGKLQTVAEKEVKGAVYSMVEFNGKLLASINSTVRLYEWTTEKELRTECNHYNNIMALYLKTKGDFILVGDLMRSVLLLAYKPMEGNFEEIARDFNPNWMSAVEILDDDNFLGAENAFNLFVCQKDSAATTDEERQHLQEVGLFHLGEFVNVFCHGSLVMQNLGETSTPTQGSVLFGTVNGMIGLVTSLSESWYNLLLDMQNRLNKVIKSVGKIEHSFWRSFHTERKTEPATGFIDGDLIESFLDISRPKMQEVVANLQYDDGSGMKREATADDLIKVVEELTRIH

T1 sequence (P48729 whole entry): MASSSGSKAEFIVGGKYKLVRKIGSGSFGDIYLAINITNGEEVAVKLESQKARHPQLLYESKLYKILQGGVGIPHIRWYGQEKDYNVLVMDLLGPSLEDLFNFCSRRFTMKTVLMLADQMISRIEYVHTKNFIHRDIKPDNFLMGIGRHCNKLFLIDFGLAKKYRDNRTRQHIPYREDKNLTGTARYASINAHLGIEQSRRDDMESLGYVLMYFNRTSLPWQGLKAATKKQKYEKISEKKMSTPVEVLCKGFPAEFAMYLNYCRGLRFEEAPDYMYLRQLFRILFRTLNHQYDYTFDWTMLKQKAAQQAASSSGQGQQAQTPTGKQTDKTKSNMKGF
T1 sequence (Q96SW2 whole entry): as the sequence (Q96SW2 whole entry) above
T1 sequence (Q16531 whole entry partner): as the sequence (Q16531 whole entry partner) above
T5 sequence (Q13422 whole entry): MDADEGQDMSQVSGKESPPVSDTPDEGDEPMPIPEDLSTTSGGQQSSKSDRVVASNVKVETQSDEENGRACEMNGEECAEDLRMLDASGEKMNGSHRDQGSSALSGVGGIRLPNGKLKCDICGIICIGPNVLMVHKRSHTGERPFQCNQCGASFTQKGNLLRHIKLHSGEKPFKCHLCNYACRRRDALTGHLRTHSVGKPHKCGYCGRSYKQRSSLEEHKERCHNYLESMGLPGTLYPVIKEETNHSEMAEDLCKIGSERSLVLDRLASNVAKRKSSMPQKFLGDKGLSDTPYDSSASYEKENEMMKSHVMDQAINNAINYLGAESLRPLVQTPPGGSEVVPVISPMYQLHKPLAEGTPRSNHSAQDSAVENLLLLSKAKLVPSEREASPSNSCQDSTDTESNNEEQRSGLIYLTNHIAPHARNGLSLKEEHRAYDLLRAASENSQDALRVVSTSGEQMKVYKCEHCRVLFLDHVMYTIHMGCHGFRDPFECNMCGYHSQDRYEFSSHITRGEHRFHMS
T5 sequence (Q96SW2 whole entry): as the sequence (Q96SW2 whole entry) above
T5 sequence (Q16531 whole entry partner): as the sequence (Q16531 whole entry partner) above
T4 sequence (Q9UKT9 whole entry): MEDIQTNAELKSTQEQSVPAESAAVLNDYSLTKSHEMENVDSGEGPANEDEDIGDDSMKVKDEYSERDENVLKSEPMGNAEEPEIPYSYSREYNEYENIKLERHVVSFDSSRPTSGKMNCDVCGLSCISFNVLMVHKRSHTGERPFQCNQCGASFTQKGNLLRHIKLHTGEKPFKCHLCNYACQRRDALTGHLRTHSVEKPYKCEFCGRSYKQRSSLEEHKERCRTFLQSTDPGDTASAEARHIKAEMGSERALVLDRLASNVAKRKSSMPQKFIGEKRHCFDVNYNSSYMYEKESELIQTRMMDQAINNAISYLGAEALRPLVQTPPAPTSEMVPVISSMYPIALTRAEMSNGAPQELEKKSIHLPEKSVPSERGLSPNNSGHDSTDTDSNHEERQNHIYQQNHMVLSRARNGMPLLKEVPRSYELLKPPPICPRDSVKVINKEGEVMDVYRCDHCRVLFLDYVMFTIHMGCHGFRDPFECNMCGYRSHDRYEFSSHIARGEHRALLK
T4 sequence (Q96SW2 whole entry): as the sequence (Q96SW2 whole entry) above
T4 sequence (Q16531 whole entry partner): as the sequence (Q16531 whole entry partner) above
T3 sequence (Q9UKS7 whole entry): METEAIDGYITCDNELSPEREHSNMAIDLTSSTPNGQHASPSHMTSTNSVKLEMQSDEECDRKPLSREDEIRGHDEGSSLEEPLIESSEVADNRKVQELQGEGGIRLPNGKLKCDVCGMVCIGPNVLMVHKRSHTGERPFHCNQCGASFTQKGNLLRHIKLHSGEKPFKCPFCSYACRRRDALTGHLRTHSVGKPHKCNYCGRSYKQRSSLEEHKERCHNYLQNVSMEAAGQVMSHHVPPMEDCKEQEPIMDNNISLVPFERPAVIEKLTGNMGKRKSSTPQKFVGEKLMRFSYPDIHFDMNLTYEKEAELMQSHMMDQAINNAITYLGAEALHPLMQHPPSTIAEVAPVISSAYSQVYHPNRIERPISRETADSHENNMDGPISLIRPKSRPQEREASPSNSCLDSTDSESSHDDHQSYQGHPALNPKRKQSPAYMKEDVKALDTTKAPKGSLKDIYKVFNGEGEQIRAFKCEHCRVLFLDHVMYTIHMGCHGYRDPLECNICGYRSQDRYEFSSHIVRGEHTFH
T3 sequence (Q96SW2 whole entry): as the sequence (Q96SW2 whole entry) above
T3 sequence (Q16531 whole entry partner): as the sequence (Q16531 whole entry partner) above

SMILES: O=C1CCN(N2Cc3cc(CN4CC=C(c5cncc(Cl)c5)CC4)ccc3C2=O)C(=O)N1 [GT-06394, 1-(5-((5-chloro-3',6'-dihydro-[3,4'-bipyridin]-1'(2'H)-yl)methyl)-1-oxoisoindolin-2-yl)dihydropyrimidine-2,4(1H,3H)-dione]
- CK1α substrate protein remaining % (CK1α): A ("A" is defined as 0% ≤ substrate protein remaining % ≤ 80%)
- GSPT1 substrate protein remaining % (GSPT1): A ("A" is defined as 0% ≤ substrate protein remaining % ≤ 80%)
- IKZF2 substrate protein remaining % (IKZF2): A ("A" is defined as 0% ≤ substrate protein remaining % ≤ 80%)
- IKZF3 substrate protein remaining % (IKZF3): B ("B" is defined as 80%< substrate protein remaining %≤ 100%)
- IKZF1 substrate protein remaining % (IKZF1): B ("B" is defined as 80%< substrate protein remaining %≤ 100%)
- WEE1 substrate protein remaining % (WEE1): B ("B" is defined as 80%< substrate protein remaining %≤ 100%)

SMILES: O=C1CCN(N2Cc3cc(CN4CC=C(c5ncccc5F)CC4)ccc3C2=O)C(=O)N1 [GT-06395, 1-(5-((3-fluoro-3',6'-dihydro-[2,4'-bipyridin]-1'(2'H)-yl)methyl)-1-oxoisoindolin-2-yl)dihydropyrimidine-2,4(1H,3H)-dione]
- CK1α substrate protein remaining % (CK1α): A ("A" is defined as 0% ≤ substrate protein remaining % ≤ 80%)
- GSPT1 substrate protein remaining % (GSPT1): A ("A" is defined as 0% ≤ substrate protein remaining % ≤ 80%)
- IKZF2 substrate protein remaining % (IKZF2): B ("B" is defined as 80%< substrate protein remaining %≤ 100%)
- IKZF3 substrate protein remaining % (IKZF3): B ("B" is defined as 80%< substrate protein remaining %≤ 100%)
- IKZF1 substrate protein remaining % (IKZF1): B ("B" is defined as 80%< substrate protein remaining %≤ 100%)
- WEE1 substrate protein remaining % (WEE1): B ("B" is defined as 80%< substrate protein remaining %≤ 100%)

SMILES: O=C1CCN(N2Cc3cc(CN4CCC(c5ccnc(F)c5F)CC4)ccc3C2=O)C(=O)N1 [GT-06396, 1-(5-((4-(2,3-difluoropyridin-4-yl)piperidin-1-yl)methyl)-1-oxoisoindolin-2-yl)dihydropyrimidine-2,4(1H,3H)-dione]
- CK1α substrate protein remaining % (CK1α): A ("A" is defined as 0% ≤ substrate protein remaining % ≤ 80%)
- GSPT1 substrate protein remaining % (GSPT1): B ("B" is defined as 80%< substrate protein remaining %≤ 100%)
- IKZF2 substrate protein remaining % (IKZF2): B ("B" is defined as 80%< substrate protein remaining %≤ 100%)
- IKZF3 substrate protein remaining % (IKZF3): B ("B" is defined as 80%< substrate protein remaining %≤ 100%)
- IKZF1 substrate protein remaining % (IKZF1): B ("B" is defined as 80%< substrate protein remaining %≤ 100%)
- WEE1 substrate protein remaining % (WEE1): B ("B" is defined as 80%< substrate protein remaining %≤ 100%)

SMILES: O=C1CCN(N2Cc3cc(CN4CC=C(c5ccnc(F)c5F)CC4)ccc3C2=O)C(=O)N1 [GT-06397, 1-(5-((2',3'-difluoro-3,6-dihydro-[4,4'-bipyridin]-1(2H)-yl)methyl)-1-oxoisoindolin-2-yl)dihydropyrimidine-2,4(1H,3H)-dione]
- CK1α substrate protein remaining % (CK1α): B ("B" is defined as 80%< substrate protein remaining %≤ 100%)
- GSPT1 substrate protein remaining % (GSPT1): A ("A" is defined as 0% ≤ substrate protein remaining % ≤ 80%)
- IKZF2 substrate protein remaining % (IKZF2): A ("A" is defined as 0% ≤ substrate protein remaining % ≤ 80%)
- IKZF3 substrate protein remaining % (IKZF3): B ("B" is defined as 80%< substrate protein remaining %≤ 100%)
- IKZF1 substrate protein remaining % (IKZF1): B ("B" is defined as 80%< substrate protein remaining %≤ 100%)
- WEE1 substrate protein remaining % (WEE1): A ("A" is defined as 0% ≤ substrate protein remaining % ≤ 80%)

SMILES: CC1CN(Cc2ccc3c(c2)C(=O)N(N2CCC(=O)NC2=O)C3=O)CC(C)N1C(c1ccccc1)c1ccccc1 (stereo not drawn) [GT-06430, 5-((4-benzhydryl-3,5-dimethylpiperazin-1-yl)methyl)-2-(2,4-dioxotetrahydropyrimidin-1(2H)-yl)isoindoline-1,3-dione]
- CK1α substrate protein remaining % (CK1α): B ("B" is defined as 80%< substrate protein remaining %≤ 100%)
- GSPT1 substrate protein remaining % (GSPT1): A ("A" is defined as 0% ≤ substrate protein remaining % ≤ 80%)
- IKZF2 substrate protein remaining % (IKZF2): B ("B" is defined as 80%< substrate protein remaining %≤ 100%)
- IKZF3 substrate protein remaining % (IKZF3): A ("A" is defined as 0% ≤ substrate protein remaining % ≤ 80%)
- IKZF1 substrate protein remaining % (IKZF1): A ("A" is defined as 0% ≤ substrate protein remaining % ≤ 80%)
- WEE1 substrate protein remaining % (WEE1): A ("A" is defined as 0% ≤ substrate protein remaining % ≤ 80%)

SMILES: CC1CN(Cc2ccc3c(c2)CN(N2CCC(=O)NC2=O)C3=O)CC(C)N1C(c1ccccc1)c1ccccc1 (stereo not drawn) [GT-06431, 1-(5-((4-benzhydryl-3,5-dimethylpiperazin-1-yl)methyl)-1-oxoisoindolin-2-yl)dihydropyrimidine-2,4(1H,3H)-dione]
- CK1α substrate protein remaining % (CK1α): B ("B" is defined as 80%< substrate protein remaining %≤ 100%)
- GSPT1 substrate protein remaining % (GSPT1): A ("A" is defined as 0% ≤ substrate protein remaining % ≤ 80%)
- IKZF2 substrate protein remaining % (IKZF2): A ("A" is defined as 0% ≤ substrate protein remaining % ≤ 80%)
- IKZF3 substrate protein remaining % (IKZF3): B ("B" is defined as 80%< substrate protein remaining %≤ 100%)
- IKZF1 substrate protein remaining % (IKZF1): A ("A" is defined as 0% ≤ substrate protein remaining % ≤ 80%)
- WEE1 substrate protein remaining % (WEE1): A ("A" is defined as 0% ≤ substrate protein remaining % ≤ 80%)

SMILES: O=C1CCN(N2C(=O)c3ccc(CN4CCN(Cc5ccccc5-c5ccc(Cl)cc5)CC4)cc3C2=O)C(=O)N1 [GT-06432, 5-((4-((4'-chloro-[1,1'-biphenyl]-2-yl)methyl)piperazin-1-yl)methyl)-2-(2,4-dioxotetrahydropyrimidin-1(2H)-yl)isoindoline-1,3-dione]
- CK1α substrate protein remaining % (CK1α): B ("B" is defined as 80%< substrate protein remaining %≤ 100%)
- GSPT1 substrate protein remaining % (GSPT1): A ("A" is defined as 0% ≤ substrate protein remaining % ≤ 80%)
- IKZF2 substrate protein remaining % (IKZF2): B ("B" is defined as 80%< substrate protein remaining %≤ 100%)
- IKZF3 substrate protein remaining % (IKZF3): B ("B" is defined as 80%< substrate protein remaining %≤ 100%)
- IKZF1 substrate protein remaining % (IKZF1): A ("A" is defined as 0% ≤ substrate protein remaining % ≤ 80%)
- WEE1 substrate protein remaining % (WEE1): A ("A" is defined as 0% ≤ substrate protein remaining % ≤ 80%)

SMILES: O=C1CCN(N2Cc3cc(CN4CCN(Cc5ccccc5-c5ccc(Cl)cc5)CC4)ccc3C2=O)C(=O)N1 [GT-06433, 1-(5-((4-((4'-chloro-[1,1'-biphenyl]-2-yl)methyl)piperazin-1-yl)methyl)-1-oxoisoindolin-2-yl)dihydropyrimidine-2,4(1H,3H)-dione]
- CK1α substrate protein remaining % (CK1α): B ("B" is defined as 80%< substrate protein remaining %≤ 100%)
- GSPT1 substrate protein remaining % (GSPT1): A ("A" is defined as 0% ≤ substrate protein remaining % ≤ 80%)
- IKZF2 substrate protein remaining % (IKZF2): A ("A" is defined as 0% ≤ substrate protein remaining % ≤ 80%)
- IKZF3 substrate protein remaining % (IKZF3): A ("A" is defined as 0% ≤ substrate protein remaining % ≤ 80%)
- IKZF1 substrate protein remaining % (IKZF1): A ("A" is defined as 0% ≤ substrate protein remaining % ≤ 80%)
- WEE1 substrate protein remaining % (WEE1): A ("A" is defined as 0% ≤ substrate protein remaining % ≤ 80%)

SMILES: Cc1ccsc1C1=CCN(Cc2ccc3c(c2)C(=O)N(N2CCC(=O)NC2=O)C3=O)CC1 [GT-06434, 2-(2,4-dioxotetrahydropyrimidin-1(2H)-yl)-5-((4-(3-methylthiophen-2-yl)-3,6-dihydropyridin-1(2H)-yl)methyl)isoindoline-1,3-dione]
- CK1α substrate protein remaining % (CK1α): B ("B" is defined as 80%< substrate protein remaining %≤ 100%)
- GSPT1 substrate protein remaining % (GSPT1): A ("A" is defined as 0% ≤ substrate protein remaining % ≤ 80%)
- IKZF2 substrate protein remaining % (IKZF2): A ("A" is defined as 0% ≤ substrate protein remaining % ≤ 80%)
- IKZF3 substrate protein remaining % (IKZF3): A ("A" is defined as 0% ≤ substrate protein remaining % ≤ 80%)
- IKZF1 substrate protein remaining % (IKZF1): B ("B" is defined as 80%< substrate protein remaining %≤ 100%)
- WEE1 substrate protein remaining % (WEE1): A ("A" is defined as 0% ≤ substrate protein remaining % ≤ 80%)

SMILES: O=C1CCN(N2C(=O)c3ccc(CN4CC=C(c5ccsc5)CC4)cc3C2=O)C(=O)N1 [GT-06435, 2-(2,4-dioxotetrahydropyrimidin-1(2H)-yl)-5-((4-(thiophen-3-yl)-3,6-dihydropyridin-1(2H)-yl)methyl)isoindoline-1,3-dione]
- CK1α substrate protein remaining % (CK1α): B ("B" is defined as 80%< substrate protein remaining %≤ 100%)
- GSPT1 substrate protein remaining % (GSPT1): A ("A" is defined as 0% ≤ substrate protein remaining % ≤ 80%)
- IKZF2 substrate protein remaining % (IKZF2): A ("A" is defined as 0% ≤ substrate protein remaining % ≤ 80%)
- IKZF3 substrate protein remaining % (IKZF3): A ("A" is defined as 0% ≤ substrate protein remaining % ≤ 80%)
- IKZF1 substrate protein remaining % (IKZF1): B ("B" is defined as 80%< substrate protein remaining %≤ 100%)
- WEE1 substrate protein remaining % (WEE1): A ("A" is defined as 0% ≤ substrate protein remaining % ≤ 80%)

SMILES: C[C@@H]1CN(C(c2ccccc2)c2ccccc2)CCN1Cc1ccc2c(c1)CN(N1CCC(=O)NC1=O)C2=O [GT-06448, (R)-1-(5-((4-benzhydryl-2-methylpiperazin-1-yl)methyl)-1-oxoisoindolin-2-yl)dihydropyrimidine-2,4(1H,3H)-dione]
- CK1α substrate protein remaining % (CK1α): B ("B" is defined as 80%< substrate protein remaining %≤ 100%)
- GSPT1 substrate protein remaining % (GSPT1): A ("A" is defined as 0% ≤ substrate protein remaining % ≤ 80%)
- IKZF2 substrate protein remaining % (IKZF2): A ("A" is defined as 0% ≤ substrate protein remaining % ≤ 80%)
- IKZF3 substrate protein remaining % (IKZF3): A ("A" is defined as 0% ≤ substrate protein remaining % ≤ 80%)
- IKZF1 substrate protein remaining % (IKZF1): B ("B" is defined as 80%< substrate protein remaining %≤ 100%)
- WEE1 substrate protein remaining % (WEE1): B ("B" is defined as 80%< substrate protein remaining %≤ 100%)
